The assay deals with NL-RLuc virus (recombinant HIV NL4-3 proviral clone with Renilla Luciferase) in MT-2 cells. Put plainly: Inhibition of HIV Replication (NL-RLuc luciferase reporter virus, MT-2 cells). It is filed as cell-based. As to conditions: MT2, 120 h; for pEC50: read-out: Activity; for EC50: read-out: EC50 μM. An excerpt:
Inhibition of HIV Replication:
A recombinant NL-RLuc proviral clone was constructed in which a section of the nef gene from NL4-3 was replaced with the Renilla Luciferase gene. This virus is fully infectious and can undergo multiple cycles of replication in cell culture. In addition, the luciferous reporter provides a simple and easy method for quantitating the extent of virus growth and consequently, the antiviral activity of test compounds. The plasmid pNLRLuc contains the proviral NL-Rluc DNA cloned into pUC 18 at the PvuII site. The NL-RLuc virus was prepared by transfection of 293T cells with the plasmid pNLRLuc. Transfections were performed using the LipofectAMINE PLUS kit from Invitrogen (Carlsbad, Calif.) according to the manufacturer and the virus generated was titered in MT-2 cells. For susceptibility analyses, the titrated virus was used to infect MT-2 cells in the presence of compound, and after 5 days of incubation, cells were processed and quantitated for virus growth by the amount of expressed luciferase. Assay media was RPMI 1640 supplemented with 10% heat inactivated fetal bovine serum (FBS), 100 units/ml penicillin G/100 units/ml streptomycin, 10 mM HEPES buffer pH 7.55 and 2 mM L-glutamine. The results from at least 2 experiments were used to calculate the EC50 values. Luciferase was quantitated using the Dual Luciferase kit from Promega (Madison, Wis.). Susceptibility of viruses to compounds was determined by incubation in the presence of serial dilutions of the compound. The 50% effective concentration (EC50) was calculated by using the exponential form of the median effect equation where (Fa)=1/[1+(ED50/drug conc.)^m](Johnson V A, Byington R T. Infectivity Assay. In Techniques in HIV Research. ed. Aldovini A, Walker B D. 71-76. New York: Stockton Press. 1990). Activity equal to A refers to a compound having an EC50≤100 nM, while B and C denote compounds having an EC50 between 100 nM and 1 uM (B) or >1 uM (C).
(In general: A reporter such as luciferase makes a cellular process visible.)

pEC50: −log10 of the molar value. Read-outs that look alike come from different tables or passages of the source. A value given as a limit tells only on which side of the number the result lay.

In the case of `Cc1nc(C)c([C@H](OC(C)(C)C)C(=O)O)c(N2CCC(C)(C)CC2)c1-c1ccc(CN(Cc2ccc(F)cc2)S(C)(=O)=O)cc1` [Example 34, (S)-2-(tert-butoxy)-2-(4-(4,4-dimethylpiperidin-1-yl)-5-(4-((N-(4-fluorobenzyl)methylsulfonamido)methyl)phenyl)-2,6-dimethylpyridin-3-yl)acetic acid], the pEC50 is more than 7.00. Take `Cc1ccccc1C(=O)N(Cc1ccc(F)cc1)Cc1ccc(-c2c(C)nc(C)c([C@H](OC(C)(C)C)C(=O)O)c2N2CCC(C)(C)CC2)cc1` [Example 43, (S)-2-(tert-butoxy)-2-(4-(4,4-dimethylpiperidin-1-yl)-5-(4-((N-(4-fluorobenzyl)-2-methylbenzamido)methyl)phenyl)-2,6-dimethylpyridin-3-yl)acetic acid]: the pEC50 was more than 7.00. `COc1ccccc1C(=O)N(Cc1ccc(F)cc1)Cc1ccc(-c2c(C)nc(C)c([C@H](OC(C)(C)C)C(=O)O)c2N2CCC(C)(C)CC2)cc1` [Example 26, (S)-2-(tert-butoxy)-2-(4-(4,4-dimethylpiperidin-1-yl)-5-(4-((N-(4-fluorobenzyl)-2-methoxybenzamido)methyl)phenyl)-2,6-dimethylpyridin-3-yl)acetic acid]: the pEC50 was more than 7.00. Same read-out and setting: next, `COC(=O)N(Cc1ccc(F)cc1)Cc1ccc(-c2c(C)nc(C)c([C@H](OC(C)(C)C)C(=O)O)c2N2CCC(C)(C)CC2)cc1` [Example 32, (S)-2-(tert-butoxy)-2-(4-(4,4-dimethylpiperidin-1-yl)-5-(4-(((4-fluorobenzyl)(methoxycarbonyl)amino)methyl)phenyl)-2,6-dimethylpyridin-3-yl)acetic acid]: more than 7.00.

On to `CCC(=O)N(Cc1ccc(F)cc1)Cc1ccc(-c2c(C)nc(C)c([C@H](OC(C)(C)C)C(=O)O)c2N2CCC(C)(C)CC2)cc1` [Example 22, (S)-2-(tert-butoxy)-2-(4-(4,4-dimethylpiperidin-1-yl)-5-(4-((N-(4-fluorobenzyl)propionamido)methyl)phenyl)-2,6-dimethylpyridin-3-yl)acetic acid], for which the pEC50 was more than 7.00.

On to `CCOC(=O)N(Cc1ccc(F)cc1)Cc1ccc(-c2c(C)nc(C)c([C@H](OC(C)(C)C)C(=O)O)c2N2CCC(C)(C)CC2)cc1` [Example 33, (S)-2-(tert-butoxy)-2-(4-(4,4-dimethylpiperidin-1-yl)-5-(4-(((ethoxycarbonyl)(4 fluorobenzyl)amino)methyl)phenyl)-2,6-dimethylpyridin-3-yl)acetic acid], for which the pEC50 was more than 7.00. Regarding `Cc1nc(C)c([C@H](OC(C)(C)C)C(=O)O)c(N2CCC(C)(C)CC2)c1-c1ccc(CN(Cc2ccc(F)cc2)CC2CCCO2)cc1` (stereo partly drawn) [Example 3, (2S)-2-(tert-Butoxy)-2-(4-(4,4-dimethylpiperidin-1-yl)-5-(4-(((4-fluorobenzyl) ((tetrahydrofuran-2-yl)methyl)amino)methyl)phenyl)-2,6-dimethylpyridin-3-yl)acetic acid], the pEC50 was more than 7.00. With `Cc1nc(C)c([C@H](OC(C)(C)C)C(=O)O)c(N2CCC(C)(C)CC2)c1-c1ccc(CN(Cc2ccc(F)cc2)C(=O)c2ccc(F)cc2)cc1` [Example 28, (S)-2-(tert-butoxy)-2-(4-(4,4-dimethylpiperidin-1-yl)-5-(4-((4-fluoro-N-(4-fluorobenzyl)benzamido)methyl)phenyl)-2,6-dimethylpyridin-3-yl)acetic acid], the pEC50 is more than 7.00. In general, EC50 refers to the concentration that produces a half-maximal response. With `Cc1nc(C)c([C@H](OC(C)(C)C)C(=O)O)c(N2CCC(C)(C)CC2)c1-c1ccc(CNCc2ccc(C(=O)O)cc2)cc1` [Example 19, (S)-4-(((4-(5-(tert-butoxy(carboxy)methyl)-4-(4,4-dimethylpiperidin-1-yl)-2,6-dimethylpyridin-3-yl)benzyl)amino)methyl)benzoic acid], the pEC50 is less than 6.00 and the 50% effective concentration (EC50) was determined as 2.07 µM. For the compound `Cc1nc(C)c([C@H](OC(C)(C)C)C(=O)O)c(N2CCC(C)(C)CC2)c1-c1ccc(CN(Cc2ccc(F)cc2)C(=O)c2ccccc2F)cc1` [Example 27, (S)-2-(tert-butoxy)-2-(4-(4,4-dimethylpiperidin-1-yl)-5-(4-((2-fluoro-N-(4-fluorobenzyl)benzamido)methyl)phenyl)-2,6-dimethylpyridin-3-yl)acetic acid], the pEC50 is more than 7.00 and the EC50 came to 0.008 µM. Turning to `Cc1nc(C)c([C@H](OC(C)(C)C)C(=O)O)c(N2CCC(C)(C)CC2)c1-c1ccc(CN(C)CCc2ccc(F)cc2)cc1` [Example 5, (S)-2-(tert-butoxy)-2-(4-(4,4-dimethylpiperidin-1-yl)-5-(4-(((4-fluorophenethyl)(methyl)amino)methyl)phenyl)-2,6-dimethylpyridin-3-yl)acetic acid], the pEC50 is more than 7.00. Consider `Cc1cc(C(=O)N(Cc2ccc(F)cc2)Cc2ccc(-c3c(C)nc(C)c([C@H](OC(C)(C)C)C(=O)O)c3N3CCC(C)(C)CC3)cc2)c(C)o1` [Example 29, (S)-2-(terr-butoxy)-2-(4-(4,4-dimethylpiperidin-1-yl)-5-(4-((N-(4-fluorobenzyl)-2,5-dimethylfuran-3-carboxamido)methyl)phenyl)-2,6-dimethylpyridin-3-yl)acetic acid], for which the pEC50 is more than 7.00.

With `Cc1nc(C)c([C@H](OC(C)(C)C)C(=O)O)c(N2CCC(C)(C)CC2)c1-c1ccc(CN(Cc2ccc(F)cc2)C(=O)c2ccccc2C(F)(F)F)cc1` [Example 39, (S)-2-(tert-butoxy)-2-(4-(4,4-dimethylpiperidin-1-yl)-5-(4-((N-(4-fluorobenzyl)-2-(trifluoromethyl)benzamido)methyl)phenyl)-2,6-dimethylpyridin-3-yl)acetic acid], the pEC50 is more than 7.00.
